# US10507212B2, “Method for use of homopiperazinium compounds in the treatment of cancer” (UNIVERSITÉ LAVAL, priority 2014, dated 2019)
# Experiments:
# A549 cells = experiment: In vivo antitumor assay, A549 tumor cell-bearing nu/nu mice (Example 27); details: 30 mg/kg daily, subcutaneous or intraperitoneal
# Procedure: For the in vivo antitumor assay, nu/nu mice were inoculated subcutaneously in the flank of mice with 2×10^6 A549 cells in sterile PBS mixed with 50% matrigel. Two days later ASM-024 was administered daily by subcutaneous (at a site close to the tumor) or intraperitoneal delivery at the dose of 30 mg/kg for up to 50 days. When palpable, tumor length and width were measured with a caliper and tumor volume calculated according to the formula Volume=(width2×length)/2.
# FIGS. 6A, 6B, 7A and 7B are illustrating the antitumor effect of ASM-024 in A549 tumor cell-bearing mice after 51 days. The antitumor effect of each delivery mode was evaluated by measuring tumor volume (FIGS. 6A and 6B) and weight (FIGS. 7A and 7B). Values are presented as the mean±standard deviation.
# A549 lung adenocarcinoma = experiment: In vitro combination treatment with cisplatin or taxol, A549 (MTT); type: cell-based, human; details: ASM-024 alone, 3 days of drug treatment
# Procedure: The concomitant effect of ASM-024 and cisplatin or taxol on the proliferation of A549 lung adenocarcinoma and MCF7 breast cancer adenocarcinoma cells was assessed in vitro.
# A549 cells (3.0×10^3cells/well) were first cultured with 10% FBS in F12K media and MCF7 cells (10×10^3 cells/well) with 10% FBS in EMEM media for 24 hours to allow cells to adhere to the plate at 37° C. in a humidified incubator with 5% CO2. The next day, the media was replaced in medium containing appropriate drug concentrations […] for an additional 72 hours. Cell viability was quantified using the MTT colorimetric assay (M2128, Sigma) at 575-690 nm.
smiles,measurement,setting,value
"CC[N+]1(CC)CCCN(c2ccccc2)CC1.Cc1ccc(S(=O)(=O)[O-])cc1 [ASM-024, 1,1-Diethyl-4-phenyl-homopiperazinium Tosylate]","Tumor growth, as determined by mean tumor volumes","A549 cells; 51 days of observation, vs control mice",reduced
same,Mean tumor weight after surgical resection,"A549 cells; after 51 days, vs vehicle-treated control mice",reduction in tumor mass
same,A549 cell growth inhibition,A549 lung adenocarcinoma,dose-dependent growth inhibition of cell proliferation
